Series [1] relates to Vero. The experiment in a line: viability of Vero cells under compound – cytotoxicity control for flavivirus capping enzyme inhibitors (AID 588742). Format: functional. To be noted: Chlorocebus sabaeus.
In series [2] the target is Cytochrome P450 2C9 (Homo sapiens, UniProt P11712).
Series [3] deals with Cytochrome P450 2C19 (Homo sapiens, UniProt P33261). The experiment in a line: Cytochrome panel assay with activity outcomes. Panel member name: p450-cyp2c19 Compounds with AC50 equal or less than 10 uM are considered active. Conditions: read-out: AC50. Format: functional.
The target of series [4] is Cytochrome P450 3A4 (Homo sapiens, UniProt P08684).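 Note: CYP3A4 tested as one member of a cytochrome P450 panel screen.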
Series [5] deals with T1, Cytochrome P450 1A2 (Homo sapiens, UniProt P05177).
T1 sequence (P05177 whole entry): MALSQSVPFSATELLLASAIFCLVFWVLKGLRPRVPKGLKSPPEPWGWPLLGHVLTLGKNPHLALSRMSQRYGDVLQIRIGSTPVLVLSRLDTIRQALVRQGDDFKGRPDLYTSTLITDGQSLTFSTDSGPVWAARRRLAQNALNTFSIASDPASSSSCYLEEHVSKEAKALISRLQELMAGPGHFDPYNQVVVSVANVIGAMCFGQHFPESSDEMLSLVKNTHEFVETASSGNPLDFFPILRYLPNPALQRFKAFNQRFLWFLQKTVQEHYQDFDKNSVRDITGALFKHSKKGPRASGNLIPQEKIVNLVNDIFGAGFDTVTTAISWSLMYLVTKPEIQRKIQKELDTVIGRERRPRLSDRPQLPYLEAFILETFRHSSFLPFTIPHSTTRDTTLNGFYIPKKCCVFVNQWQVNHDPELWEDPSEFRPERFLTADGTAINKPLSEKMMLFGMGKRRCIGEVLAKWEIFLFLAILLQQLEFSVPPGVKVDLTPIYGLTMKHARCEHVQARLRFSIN

Series [6] has as its target T2, Rac GTPase-activating protein 1 (Homo sapiens, UniProt Q9H0H5).
T2 sequence (Q9H0H5 whole entry): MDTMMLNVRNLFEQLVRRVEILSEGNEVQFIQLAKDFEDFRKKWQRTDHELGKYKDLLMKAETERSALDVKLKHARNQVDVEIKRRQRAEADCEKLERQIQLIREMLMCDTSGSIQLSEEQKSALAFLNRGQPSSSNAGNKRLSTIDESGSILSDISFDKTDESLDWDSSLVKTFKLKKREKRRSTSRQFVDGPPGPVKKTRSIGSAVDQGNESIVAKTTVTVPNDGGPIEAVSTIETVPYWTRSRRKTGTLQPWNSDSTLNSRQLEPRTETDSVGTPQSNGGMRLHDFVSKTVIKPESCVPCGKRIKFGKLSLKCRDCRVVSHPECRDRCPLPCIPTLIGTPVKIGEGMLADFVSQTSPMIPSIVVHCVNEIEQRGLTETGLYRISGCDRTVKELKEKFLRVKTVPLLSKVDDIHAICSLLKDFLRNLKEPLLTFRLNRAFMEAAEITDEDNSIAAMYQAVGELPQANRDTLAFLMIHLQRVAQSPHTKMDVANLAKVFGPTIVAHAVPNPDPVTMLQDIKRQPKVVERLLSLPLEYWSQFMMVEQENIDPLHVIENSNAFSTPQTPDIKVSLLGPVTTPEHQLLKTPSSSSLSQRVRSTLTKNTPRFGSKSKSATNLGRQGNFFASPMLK
The experiment in a line: blockers of MgcRacGAP-driven Rac1 GTP hydrolysis – biochemical, ADP Hunter fluorescence, primary and confirmatory, confirmation (AID 624330). Format: functional.

Series [7] addresses NAD-dependent protein deacylase sirtuin-5, mitochondrial (Homo sapiens, UniProt Q9NXA8). Description: sirtuin-5 deacylation blockers, concentration series – biochemical, fluorescence imaging, cherry-pick, set 5, dose response (AID 720591).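 Note: desuccinylation of succinyl peptide AMC substrate read as fluorescence after trypsin release; potency of inhibitors that lower fluorescence and may act on trypsin instead.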
Series [8] can be described thus: HIV-1 AD8 envelope cell-cell fusion blockers – cherry-pick, dose response (AID 652062).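 Note: luciferase signal from cell-cell fusion driven by HIV-1 clade B AD8 Env; potency is for inhibitors of fusion seen as a drop in luminescence.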 Format: functional, cell-based.
A short description of series [9]: blockers of HIV-1 envelope-mediated cell-cell fusion – cherry-pick, dose response (AID 652057). Format: functional, cell-based.
A short description of series [10]: viability loss in CEM21 cells – cell-based, CellTiter-Glo luminescence, cherry-picked, cytotoxicity control for viral fusion inhibitor project, dose response (AID 652042).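 Note: potency for signal decrease meaning cytotoxicity.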 Format: functional. On the technique in general: In ATP-based viability assays light output follows the ATP content of the culture.
Series [11] is described as follows: blockers of HIV-1 ZM109 envelope-driven cell-cell fusion – HeLa effector, CEM target cells, luciferase, cherry-pick, dose response (AID 652058).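 Note: luciferase signal from HIV-1 Env mediated cell-cell fusion of effector and target cells.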 The class given is functional, cell-based.
Series [12] in a line: off-target signal loss in HeLa-CEM21 co-culture – HeLa F-luc CTL cells, cherry-picked, counter-screen for HIV-1 Env fusion inhibitor project, dose response (AID 652040).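 Note: potency for signal decrease marking cytotoxic or nonspecific inhibition.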 Format: functional, cell-based.
Series [13] deals with T3, Type-1 angiotensin II receptor (Homo sapiens, UniProt P30556).
T3 sequence (P30556 whole entry): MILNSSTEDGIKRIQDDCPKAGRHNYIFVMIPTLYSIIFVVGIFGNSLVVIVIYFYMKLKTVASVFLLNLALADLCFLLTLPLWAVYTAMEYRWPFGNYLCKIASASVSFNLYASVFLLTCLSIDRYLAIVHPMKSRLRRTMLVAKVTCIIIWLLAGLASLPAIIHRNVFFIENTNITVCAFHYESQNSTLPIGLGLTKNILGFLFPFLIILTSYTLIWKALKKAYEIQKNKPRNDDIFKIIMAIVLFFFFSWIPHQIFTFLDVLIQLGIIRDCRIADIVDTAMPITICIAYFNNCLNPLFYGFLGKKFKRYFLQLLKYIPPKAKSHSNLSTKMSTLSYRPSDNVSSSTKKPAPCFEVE
Description: antagonism of angiotensin II type 1 receptor – cell-based, uHTS hits, selectivity assay for APJ receptor antagonist project, dose response (AID 463214).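 Note: antagonist potency against angiotensin II stimulated AT1 response.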 Format: functional.

Series [14] addresses Beta-galactosidase (Escherichia coli, UniProt Q8VNN2). The experiment in a line: PubChem AID 485352. Format: functional.
For series [15], the system named is HEK293. Description: EBV LMP1 TES2 canonical NF-kB signalling blockers – cell-based, HEK293, luciferase, cherry-pick, dose response (AID 588343). Format: functional. Conditions: Homo sapiens.
For series [16], the target named is T4, Corticotropin-releasing factor receptor 2/Corticotropin-releasing factor-binding protein (Homo sapiens, UniProt P24387+Q13324).
T4 sequence (Q13324 whole entry): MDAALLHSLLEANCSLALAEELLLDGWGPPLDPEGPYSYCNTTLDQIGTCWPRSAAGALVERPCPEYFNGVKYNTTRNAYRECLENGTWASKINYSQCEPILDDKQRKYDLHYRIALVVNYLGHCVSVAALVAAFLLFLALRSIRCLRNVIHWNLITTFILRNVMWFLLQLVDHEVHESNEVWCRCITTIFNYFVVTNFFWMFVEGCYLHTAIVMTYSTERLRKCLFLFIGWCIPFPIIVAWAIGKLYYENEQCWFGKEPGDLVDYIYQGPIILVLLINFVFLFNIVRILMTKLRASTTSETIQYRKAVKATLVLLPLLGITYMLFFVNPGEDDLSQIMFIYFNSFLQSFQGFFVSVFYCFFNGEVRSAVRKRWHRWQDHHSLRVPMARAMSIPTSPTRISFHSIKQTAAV
T4 sequence (P24387 whole entry): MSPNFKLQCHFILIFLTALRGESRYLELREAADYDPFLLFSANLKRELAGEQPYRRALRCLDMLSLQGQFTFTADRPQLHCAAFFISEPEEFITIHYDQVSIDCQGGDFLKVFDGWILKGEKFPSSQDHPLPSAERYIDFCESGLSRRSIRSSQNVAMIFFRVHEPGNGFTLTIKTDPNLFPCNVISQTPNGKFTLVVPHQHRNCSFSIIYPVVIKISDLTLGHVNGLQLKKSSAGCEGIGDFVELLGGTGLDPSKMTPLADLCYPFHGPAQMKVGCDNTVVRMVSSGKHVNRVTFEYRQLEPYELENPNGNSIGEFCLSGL
Description: activators of CRF receptor 2 with binding protein – uHTS hits, confirmation (AID 602473). Conditions: read-out: EC50_Mean. The class given is functional.

In series [17] the target is Cytochrome P450 2D6 (Homo sapiens, UniProt P10635).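 Note: CYP2D6 member of a cytochrome P450 panel assay.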
For series [18], the target named is T4, Corticotropin-releasing factor receptor 2/Corticotropin-releasing factor-binding protein. The experiment in a line: Dose Response confirmation of uHTS hits for small molecule antagonists of the CRF-binding protein and CRF-R2 receptor complex. Format: functional. To be noted: read-out: IC50_Mean.
Series [19] is described as follows: blockers of CRF-binding protein–CRF-R2 complex – cell-based, uHTS hits, 384-well, dose response (AID 651639). To be noted: read-out: IC50_Mean. The class given is functional, Homo sapiens.
The test system of series [20] is BJ. The experiment in a line: BJ-TERT-LT-ST fibroblast viability loss – cell-based, RAS-independent, luminescence, dose response (AID 1935).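 Note: BJ fibroblasts immortalized with TERT plus LT and ST oncogenes.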 The class given is functional. To be noted: Homo sapiens.
Series [21] has as its system BJ. Description: BJ-TERT fibroblast viability loss – cell-based, RAS-independent, luminescence, dose response (AID 1933). To be noted: Homo sapiens. Format: functional.
Series [22] deals with BJ. Description: cells. Format: functional, cell-based. Conditions: Homo sapiens.
The nature of series [23]: DRD fibroblast viability loss – cell-based, non-viral oncogenic, luminescence, dose response (AID 1934). Format: functional. Conditions: Homo sapiens.
For series [24], the target named is Genome polyprotein (dengue virus type 2, UniProt P29990). Description: flavivirus cap methylation enzyme inhibition – biochemical, confirmation dose response, primary screen (AID 588689). Format: functional.

The structures appear in SMILES notation. Active and inactive are the calls of the source.

This note sets out measurements from ChEMBL document CHEMBL1201862, “PubChem BioAssay data set” (2004).

Chain of Cytochrome P450 2C9 (P11712 whole entry): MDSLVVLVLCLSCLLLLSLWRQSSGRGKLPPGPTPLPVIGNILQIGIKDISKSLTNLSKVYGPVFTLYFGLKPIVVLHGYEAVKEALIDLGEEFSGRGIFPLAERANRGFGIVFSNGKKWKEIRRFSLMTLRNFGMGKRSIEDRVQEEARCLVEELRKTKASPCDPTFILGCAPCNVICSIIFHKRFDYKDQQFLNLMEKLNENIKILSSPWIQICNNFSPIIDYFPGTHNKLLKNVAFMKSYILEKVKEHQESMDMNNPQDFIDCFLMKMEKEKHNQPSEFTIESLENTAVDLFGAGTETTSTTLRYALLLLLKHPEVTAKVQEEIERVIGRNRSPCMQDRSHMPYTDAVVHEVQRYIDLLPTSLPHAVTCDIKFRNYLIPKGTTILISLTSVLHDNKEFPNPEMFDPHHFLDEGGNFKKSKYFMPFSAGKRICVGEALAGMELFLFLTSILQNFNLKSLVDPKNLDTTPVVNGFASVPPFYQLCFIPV
Chain of NAD-dependent protein deacylase sirtuin-5, mitochondrial (Q9NXA8 whole entry, the tested form may be a part): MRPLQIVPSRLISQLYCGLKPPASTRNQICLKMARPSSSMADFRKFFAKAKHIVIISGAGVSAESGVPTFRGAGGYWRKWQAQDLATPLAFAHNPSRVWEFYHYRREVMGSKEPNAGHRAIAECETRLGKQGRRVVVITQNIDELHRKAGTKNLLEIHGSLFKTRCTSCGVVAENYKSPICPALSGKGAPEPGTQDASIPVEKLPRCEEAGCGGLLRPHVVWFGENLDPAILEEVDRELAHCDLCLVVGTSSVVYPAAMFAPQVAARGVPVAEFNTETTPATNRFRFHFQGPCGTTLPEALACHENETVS
Chain of Cytochrome P450 2C19 (P33261 whole entry): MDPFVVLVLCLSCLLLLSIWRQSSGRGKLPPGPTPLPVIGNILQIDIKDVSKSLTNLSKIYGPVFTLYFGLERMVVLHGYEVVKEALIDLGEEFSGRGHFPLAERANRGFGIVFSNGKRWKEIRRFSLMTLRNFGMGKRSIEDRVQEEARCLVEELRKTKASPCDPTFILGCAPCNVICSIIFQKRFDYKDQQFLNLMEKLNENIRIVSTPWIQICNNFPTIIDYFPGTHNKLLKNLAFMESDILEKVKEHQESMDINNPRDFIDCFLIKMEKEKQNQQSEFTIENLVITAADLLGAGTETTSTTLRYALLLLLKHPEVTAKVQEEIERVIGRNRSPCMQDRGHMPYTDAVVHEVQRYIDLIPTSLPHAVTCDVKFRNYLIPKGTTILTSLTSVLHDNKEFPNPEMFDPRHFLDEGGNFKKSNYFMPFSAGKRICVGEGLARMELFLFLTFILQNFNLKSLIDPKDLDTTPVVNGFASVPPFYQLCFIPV
Chain of Beta-galactosidase (Q8VNN2 whole entry): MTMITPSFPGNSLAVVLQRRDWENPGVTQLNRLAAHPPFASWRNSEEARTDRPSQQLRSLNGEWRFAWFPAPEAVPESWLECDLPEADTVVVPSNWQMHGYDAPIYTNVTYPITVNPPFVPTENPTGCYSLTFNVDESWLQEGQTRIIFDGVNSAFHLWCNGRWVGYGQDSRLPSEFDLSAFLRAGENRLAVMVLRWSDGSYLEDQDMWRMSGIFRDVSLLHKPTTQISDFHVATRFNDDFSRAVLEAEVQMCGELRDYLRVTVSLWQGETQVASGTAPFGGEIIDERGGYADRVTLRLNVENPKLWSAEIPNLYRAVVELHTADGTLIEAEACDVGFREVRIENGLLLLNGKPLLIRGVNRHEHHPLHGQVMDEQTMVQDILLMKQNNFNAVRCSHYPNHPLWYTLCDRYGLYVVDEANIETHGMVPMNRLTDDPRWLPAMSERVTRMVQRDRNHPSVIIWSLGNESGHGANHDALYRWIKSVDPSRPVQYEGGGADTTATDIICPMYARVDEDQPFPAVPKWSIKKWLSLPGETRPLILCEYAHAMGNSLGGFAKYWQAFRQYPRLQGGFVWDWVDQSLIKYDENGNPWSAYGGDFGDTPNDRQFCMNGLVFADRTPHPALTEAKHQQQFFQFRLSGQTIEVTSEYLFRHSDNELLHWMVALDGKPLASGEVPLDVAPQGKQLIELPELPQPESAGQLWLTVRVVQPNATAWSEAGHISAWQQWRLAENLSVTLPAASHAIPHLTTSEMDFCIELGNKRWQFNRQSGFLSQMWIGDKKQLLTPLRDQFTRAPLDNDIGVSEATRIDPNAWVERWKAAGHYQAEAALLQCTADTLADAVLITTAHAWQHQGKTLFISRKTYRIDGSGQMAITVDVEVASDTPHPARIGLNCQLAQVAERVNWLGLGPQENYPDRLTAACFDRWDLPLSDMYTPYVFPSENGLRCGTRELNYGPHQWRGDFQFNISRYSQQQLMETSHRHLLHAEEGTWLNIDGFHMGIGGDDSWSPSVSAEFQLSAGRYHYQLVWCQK
Chain of Genome polyprotein (P29990 2492-3391 limits assumed): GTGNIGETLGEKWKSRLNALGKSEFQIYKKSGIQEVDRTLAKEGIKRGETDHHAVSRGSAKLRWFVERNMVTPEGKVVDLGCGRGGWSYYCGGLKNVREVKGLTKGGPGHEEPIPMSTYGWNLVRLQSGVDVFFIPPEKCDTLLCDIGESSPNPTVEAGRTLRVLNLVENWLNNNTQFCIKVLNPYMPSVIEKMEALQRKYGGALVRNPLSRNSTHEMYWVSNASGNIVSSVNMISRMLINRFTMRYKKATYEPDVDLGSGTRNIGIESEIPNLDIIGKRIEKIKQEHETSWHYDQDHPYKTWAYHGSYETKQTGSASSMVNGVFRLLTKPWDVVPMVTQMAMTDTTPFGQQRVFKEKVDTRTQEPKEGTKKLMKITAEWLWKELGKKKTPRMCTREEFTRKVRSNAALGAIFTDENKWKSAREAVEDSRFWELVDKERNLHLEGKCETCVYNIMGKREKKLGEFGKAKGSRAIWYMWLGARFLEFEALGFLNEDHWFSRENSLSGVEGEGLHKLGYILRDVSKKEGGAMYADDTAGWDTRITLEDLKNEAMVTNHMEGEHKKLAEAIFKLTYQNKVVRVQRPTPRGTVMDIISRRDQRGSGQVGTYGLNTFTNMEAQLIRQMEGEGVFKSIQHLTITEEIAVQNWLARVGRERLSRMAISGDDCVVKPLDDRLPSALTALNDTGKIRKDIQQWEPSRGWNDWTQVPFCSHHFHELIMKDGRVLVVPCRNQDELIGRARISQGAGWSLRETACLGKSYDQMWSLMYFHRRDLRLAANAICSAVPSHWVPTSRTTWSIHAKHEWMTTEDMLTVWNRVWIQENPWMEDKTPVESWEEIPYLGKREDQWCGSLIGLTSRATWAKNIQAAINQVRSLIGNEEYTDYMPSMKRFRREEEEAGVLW
Chain of Cytochrome P450 2D6 (P10635 whole entry): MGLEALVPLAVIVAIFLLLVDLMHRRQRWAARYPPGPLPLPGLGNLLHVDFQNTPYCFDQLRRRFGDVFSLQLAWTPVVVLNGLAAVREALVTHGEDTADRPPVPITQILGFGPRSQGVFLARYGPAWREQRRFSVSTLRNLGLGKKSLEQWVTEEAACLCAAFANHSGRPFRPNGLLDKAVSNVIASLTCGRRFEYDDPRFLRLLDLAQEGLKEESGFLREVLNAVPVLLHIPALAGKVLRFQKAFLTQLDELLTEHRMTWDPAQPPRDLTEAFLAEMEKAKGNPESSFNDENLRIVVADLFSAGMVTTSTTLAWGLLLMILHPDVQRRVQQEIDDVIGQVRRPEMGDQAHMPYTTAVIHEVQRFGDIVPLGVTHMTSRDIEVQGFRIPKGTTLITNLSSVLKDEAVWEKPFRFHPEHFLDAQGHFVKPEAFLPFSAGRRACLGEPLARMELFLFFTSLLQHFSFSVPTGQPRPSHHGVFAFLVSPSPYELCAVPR
Chain of Cytochrome P450 3A4 (P08684 whole entry): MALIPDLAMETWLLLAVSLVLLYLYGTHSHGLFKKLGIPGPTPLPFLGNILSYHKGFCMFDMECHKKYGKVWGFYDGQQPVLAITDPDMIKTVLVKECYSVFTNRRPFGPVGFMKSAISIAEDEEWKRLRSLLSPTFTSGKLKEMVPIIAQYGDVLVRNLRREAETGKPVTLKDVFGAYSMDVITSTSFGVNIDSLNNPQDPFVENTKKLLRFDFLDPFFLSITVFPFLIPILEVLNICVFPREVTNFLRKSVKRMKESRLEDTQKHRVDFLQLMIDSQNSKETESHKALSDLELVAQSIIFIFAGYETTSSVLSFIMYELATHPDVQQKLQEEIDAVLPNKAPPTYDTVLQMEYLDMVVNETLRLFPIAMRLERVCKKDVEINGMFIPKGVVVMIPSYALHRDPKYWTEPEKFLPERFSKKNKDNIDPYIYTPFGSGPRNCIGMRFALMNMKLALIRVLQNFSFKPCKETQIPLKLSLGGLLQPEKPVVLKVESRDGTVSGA

For `C/C(=N\NC(=O)CNc1cccc2ccccc12)c1ccc(Br)s1`, the CC50 – broadly, the concentration giving 50% cytotoxicity – in series [1] was > 40 µM (active).

Turning to `Cc1cccc(Oc2coc3cc(OC(=O)c4cc5ccccc5oc4=O)ccc3c2=O)c1`, the half-maximal activity concentration (AC50) (commonly the concentration giving half of the maximal activity seen) in series [2] is “inconclusive”; in [3] it was 25.1 µM (inconclusive); in series [4], 39.8 µM (inconclusive).

Consider `CCCCN(C)C(=O)c1coc(=O)c2ccccc12`, for which the concentration at half-maximal activity (AC50) result in series [2] is “inconclusive”; in series [5], 2.51 µM (inconclusive).

As for `C=CCc1cc(OC)ccc1OCCN1CC(C)OC(C)C1` (configuration not stated), in series [6], the IC50 is 70.5 µM (active). In addition, in [7], the AC50 was > 30 µM (inactive).

Consider `Cc1ccc(-c2ccc3c(c2)O[C@H](CN(C)Cc2cccnc2)[C@@H](C)CN([C@H](C)CO)S3(=O)=O)cc1`, for which the AC50 in series [8] was 23.8 µM (active); in series [9], 27 µM (active); in [10], 13.7 µM (active).

With `O=C(c1[nH]c(C(F)(F)F)nc1-c1ccccc1)N1CCCN(Cc2ccc(F)cc2)CC1`, the AC50 in series [7] was > 30 µM (inactive).

For the compound `COc1cc(OC)nc(Nc2nc(C(N)COCc3ccccc3)cs2)n1` (configuration not stated), the AC50 was 5.29 µM (active) in series [8]; 3.75 µM (active) in series [9]; 4.17 µM (active) in [11]; 28.3 µM (active) in [10]; 4.69 µM (active) in series [12].

On to `CCCCNC(=S)NNC(=O)CCn1nc(C)c(Br)c1C`, for which, in [2], the AC50 result is on record as “inconclusive”. Besides, the IC50 in [13] was > 40 µM (not active). Further, the EC50 in series [14] was > 40 µM (inactive).

In the case of `Cc1ccc(OCC(=O)NNC(=S)NC(=O)C2CCCCC2)c(C)c1`, the AC50 in series [15] was 39.5 µM (active).

For `O=C1c2ccccc2C(=O)c2cc(N3CCCCC3)ccc21`, the AC50 in series [15] was 1.3 µM (active).

As to `Clc1ccccc1NN(Cc1ccncc1)c1ccccc1Cl`, the EC50 in series [16] is > 53 µM (inactive). Moreover, in series [17], the AC50 is 3.16 µM (inconclusive). In addition, the IC50 in [18] is < 0.368 µM (active); in series [19], > 20 µM (inactive).

In the case of `COc1ccc(C(=O)Nc2cc(O)nc3ncnn23)cc1`, in series [7], the half-maximal activity concentration (AC50) is 8.75 µM (active).

`Cc1nn(Cc2ccccc2)c(Cl)c1C(=O)NC1CCCc2ccccc21` (configuration not stated): the EC50 in series [16] is > 53 µM (inactive). In addition, the IC50 in series [18] is 6.77 µM (active); in [19] it was 11.9 µM (active).

As for `COc1ccc(S(=O)(=O)N2CCN(C(S)=NCC3CCCO3)CC2)cc1OC` (configuration not stated), in series [15], the AC50 was 268 µM (active).

For `CC(C)OC(=O)c1ccccc1C(=O)c1ccc(N)c([N+](=O)[O-])c1`, the EC50 in series [20] is > 150 µM (not active); in series [16], > 53 µM (inactive); in [21] it was > 150 µM (not active); in [22] it was > 150 µM (not active); in series [23] it was > 150 µM (not active). Further, the IC50 in series [18] is 38.6 µM (active); in [19], > 20 µM (inactive).

As to `CCOC(=O)c1sc(N2N=C(C)/C(=C\c3ccc(OCC(=O)OC)cc3)C2=O)nc1C`, the IC50 in series [24] is 90.7 µM (active). Besides, the CC50 in series [1] was 39.2 µM (active).

As for `O=C(c1coc(=O)c2ccccc12)N1CCN(Cc2ccccc2)CC1`, the concentration at half-maximal activity (AC50) entry in series [2] is “inconclusive”; in series [5], 10 µM (inconclusive).

For `CN(C)c1ccnc2sc(C(N)=O)c(N)c12`, in [15], the AC50 is 3.08 µM (active).

For `COc1ccccc1CNC(=O)C1CCC(CNS(=O)(=O)c2ccc(F)cc2)CC1` (configuration not stated), the AC50 in series [7] is > 30 µM (inactive).

As to `Cc1ccc(NC(=O)CSc2nnc(Cn3cnc4ccccc43)o2)c(C)c1`, the EC50 in series [16] is > 53 µM (inactive). Moreover, the IC50 in series [18] was 5.69 µM (active); in series [19] it was > 20 µM (inactive).
